The compounds below were run against T1, Zinc finger and BTB domain-containing protein 16 (Homo sapiens, UniProt Q05516) (assay: ChEBML_1665992).
T1 sequence (Q05516 whole entry): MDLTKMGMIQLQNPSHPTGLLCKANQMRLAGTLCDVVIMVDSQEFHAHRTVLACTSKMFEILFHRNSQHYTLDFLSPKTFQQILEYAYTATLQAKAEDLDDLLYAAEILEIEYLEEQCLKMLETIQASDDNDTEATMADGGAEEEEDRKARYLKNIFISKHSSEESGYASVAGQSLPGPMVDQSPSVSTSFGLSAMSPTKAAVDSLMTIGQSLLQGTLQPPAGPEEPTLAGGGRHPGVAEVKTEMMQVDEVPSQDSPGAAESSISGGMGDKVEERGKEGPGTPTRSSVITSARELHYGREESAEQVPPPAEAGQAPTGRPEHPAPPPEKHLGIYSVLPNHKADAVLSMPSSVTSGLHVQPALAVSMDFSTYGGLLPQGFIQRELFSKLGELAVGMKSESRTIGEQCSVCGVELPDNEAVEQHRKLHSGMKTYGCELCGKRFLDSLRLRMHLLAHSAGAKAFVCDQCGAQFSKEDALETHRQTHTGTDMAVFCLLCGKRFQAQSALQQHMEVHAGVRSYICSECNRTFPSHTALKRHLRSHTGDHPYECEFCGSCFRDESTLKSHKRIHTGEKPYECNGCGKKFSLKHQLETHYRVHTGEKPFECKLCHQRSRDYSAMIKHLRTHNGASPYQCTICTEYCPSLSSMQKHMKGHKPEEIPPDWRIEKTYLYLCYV
Source text: (§1) Inhibition of GAL4 DNA binding domain fused PLZF BTB domain (unknown origin) expressed in HEK 293T/17 cells after 24 hrs by Bright-Glo luciferase cell reporter assay

IC50 [µM]	Compound
> 30	N#Cc1cnn2c3cc(nc12)N1C[C@H](C[C@H]1CO)OC/C=C/COc1cc(cc2c1NC(=O)CC2)N3

What follows are compounds tested against T1, Zinc finger and BTB domain-containing protein 16 (assay: as §1).

Compound	IC50 [µM]
O=C1CCc2cc3cc(c2N1)OCCCCO[C@H]1C[C@@H](CO)N(C1)c1cc(n2nccc2n1)N3	> 30
O=C1CCc2cc3cc(c2N1)OCCCCO[C@H]1C[C@@H](CO)N(C1)c1cc(n2ncc(Cl)c2n1)N3	> 30
O=C(O)C[C@@H]1C[C@H]2CN1c1cc(n3ncc(Cl)c3n1)Nc1cc3c(c(c1)OC/C=C/CO2)N(CC1CC(F)(F)C1)C(=O)CC3	> 30
N#Cc1cnn2c3cc(nc12)N1CC[C@@H](C1)OCCCCOc1cc(cc2c1NC(=O)CC2)N3	> 30
O=C1CCc2cc3cc(c2N1CC1CC(F)(F)C1)OC/C=C/CO[C@H]1C[C@@H](CO)N(C1)c1cc(n2ncc(Cl)c2n1)N3	> 30
O=C1CCc2cc3cc(c2N1Cc1ccncc1)OC/C=C/CO[C@H]1C[C@@H](CO)N(C1)c1cc(n2ncc(Cl)c2n1)N3	> 30
O=C1CCc2cc3cc(c2N1CC1CC1)OC/C=C/CO[C@H]1C[C@@H](CO)N(C1)c1cc(n2ncc(Cl)c2n1)N3	> 30
O=C1CCc2cc3cc(c2N1)OC/C=C/CO[C@H]1C[C@@H](CO)N(C1)c1cc(n2ncc(Cl)c2n1)N3	> 30
N#Cc1cnn2c3cc(nc12)N1C[C@H](C[C@H]1CO)OCCCCOc1cc(cc2c1NC(=O)CC2)N3	> 30
COc1cccc(CN2C(=O)CCc3cc4cc(c32)OC/C=C/CO[C@H]2C[C@@H](CO)N(C2)c2cc(n3ncc(Cl)c3n2)N4)c1	> 30

Further lines, results first:

IC50 [µM]	Compound
> 30	CN1C(=O)CCc2cc3cc(c21)OC/C=C/CO[C@H]1C[C@@H](CO)N(C1)c1cc(n2ncc(Cl)c2n1)N3
> 30	O=C1CCc2cc3cc(c2N1CCCN1CCOCC1)OC/C=C/CO[C@H]1C[C@@H](CO)N(C1)c1cc(n2ncc(Cl)c2n1)N3
> 30	Cc1ccc(CN2C(=O)CCc3cc4cc(c32)OC/C=C/CO[C@H]2C[C@@H](CO)N(C2)c2cc(n3ncc(Cl)c3n2)N4)cc1
> 30	O=C1CCc2cc3cc(c2N1Cc1ccccc1)OC/C=C/CO[C@H]1C[C@@H](CO)N(C1)c1cc(n2ncc(Cl)c2n1)N3
> 30	Cc1ccccc1CN1C(=O)CCc2cc3cc(c21)OC/C=C/CO[C@H]1C[C@@H](CO)N(C1)c1cc(n2ncc(Cl)c2n1)N3
> 30	COc1cccc(CN2C(=O)CCc3cc4cc(c32)OC/C=C/CO[C@H]2C[C@@H](CO)N(C2)c2cc(n3ncc(C#N)c3n2)N4)c1
